“Also recorded” adds a separate entry of the source. Read-outs that look alike come from different tables or passages of the source.
Experiments:
[1] = test system: RAW macrophages infected with Leishmania infantum; test: Infectivity test / infection rate in RAW macrophages; type: cell-based; conditions: three concentrations (below IC50, IC50, above IC50), 24 h treatment
Description: For the infection of RAW macrophages adhered to the plates, we used parasites in the promastigote form of Leishmania infantum, in the stationary phase, in a ratio of 10:1 (promastigotes/macrophages).
Macrophages were plated in the amount of 5 × 10^4 cells per well, in 96-well plates, which were kept in a CO2 oven at 37 °C for 24 h. The parasites were plated at a concentration of 10:1. The plates were kept in a CO2 oven for 12 h until the parasites infected the cells. […] Plates were fixed with paraformol for further evaluation. Plaques were evaluated by counting parasites within 200 cells under the EVOS Cell Imaging System (Thermo Scientific, Waltham, MA, USA) microscope by staining with propidium iodide.
In view of the data obtained, the six most promising compounds (HL1^Ch, HL2^Ph, Ag3, Ag4, Ag6 and Au2) were selected for carrying out the infection rate test against the L. infantum parasite. […] This test was performed at four stages. The first step determined the percentage of the amount in 200 infected macrophages per parasite, the second determined the percentage of parasites that infects 100 cells/macrophages, the third determined the average percentage of parasites that infects 200 cells/macrophages and, finally, the fourth step indicated the infection rate, that is, the result of the amount of Leishmania per macrophage (obtained from the third step) multiplied by the percentage of infected macrophages. Figure 5 presents the graphs of the infection rates, while the other graphs can be found in Figure S7.4.

LbOYE = LbOYE (Leishmania braziliensis, UniProt A4H6Z3); test: Suppression of intrinsic tryptophan fluorescence of LbOYE; type: binding; conditions: 25 °C
Source text: The recombinant LbOYE protein was produced using the methodology previously described. Briefly, the protein was expressed in strains of bacterial Escherichia coli BL21(DE3) through induction by IPTG using the pET28a:LbOYE vector. The enzyme was purified through a chromatography step of capture by nickel affinity, as the pET28a vector allows the expression of a polyhistidine fusion peptide, located at the N-terminal end of the protein. After affinity purification, the polyhistidine tail was excised by “overnight” incubation with thrombin, and the second purification step was performed using size exclusion chromatography. Purification was evaluated by SDS-PAGE and protein concentration was estimated by spectrophotometry.
The emission spectra of the intrinsic fluorescence of the tryptophan were recorded using a Shimadzu F-4500 spectrofluorometer in the range of 310–420 nm, with opening of slits of excitation and emission at 5.0 nm and λex = 295 nm. Interaction analyzes between LbOYE and ligands were performed at λmax = 333 nm.
The compounds were solubilized in DMSO and then we made successive dilutions in a Tris-HCl 25 mmol L^−1 buffer, pH 8.0, containing 100 mmol L^−1 of NaCl. For all experiments, the final concentration of DMSO was kept constant and equal to 2.5%. Solutions with increasing concentrations of ligand and constant concentration of LbOYE (1 µmol L^−1) were prepared, which were kept at 25 °C for a period of 1h before acquisition of fluorescence emission spectra.
The results were obtained from the fluorescence emission spectra of the intrinsic tryptophan probe in the presence of the compounds HL1^Ch, HL3^FPh, HL5^NO2Ph, [Au(HL1^Ch)2]Cl and [Ag(HL3^FPh)2]NO3. The bonding parameters were determined by the Hill plot, obtaining the dissociation constant (Kd) through the non-linear adjustment of the saturation curve to the experimental data. The double-log plot was used to determine the bonding constant and the number of bonding sites (n). It also allows the calculation of the bonding constant (Kb) and Kd from 1/Kb.
Equation (1)—Hill’s equation:(1) F0−F/F0=[L]/L+Kd
Equation (2)—Double-log:(2) logF0−F/F0=nlogKb−nlog1/L−(F0−F)[P0]/F
Equation (3)—Equation of Stern–Volmer:(3) F0/F=1+KSV[L]
The study of fluorescence quenching can be affected when the ligand has absorption bands that coincide with excitation and emission wavelengths of fluorescence. This interference is called the internal filter effect, which can be minimized using the procedure described by Equation (4). Fobs and Fcor are the fluorescence intensities at 333 nm measured and corrected, respectively; l represents the optical step where the absorption and emission of light occurs and C0 is the concentration of the ligand.
For the correction of the internal filter effect, were used the molar absorptivity coefficient values in the excitation (295 nm) and emission (333 nm) lengths, [λ/ε (L mol^−1 cm^−1)]; HL1^Ch (εex = 373 and εem = 117), HL3^FPh (εex = 1191 and εem = 57), HL5^NO2Ph (εex = 6162 and εem = 9124), Au1 (εex = 7045 and εem = 4008) and Ag3 (εex = 9431 and εem = 3281).

LbOYE, sequence (A4H6Z3 entry or part of it): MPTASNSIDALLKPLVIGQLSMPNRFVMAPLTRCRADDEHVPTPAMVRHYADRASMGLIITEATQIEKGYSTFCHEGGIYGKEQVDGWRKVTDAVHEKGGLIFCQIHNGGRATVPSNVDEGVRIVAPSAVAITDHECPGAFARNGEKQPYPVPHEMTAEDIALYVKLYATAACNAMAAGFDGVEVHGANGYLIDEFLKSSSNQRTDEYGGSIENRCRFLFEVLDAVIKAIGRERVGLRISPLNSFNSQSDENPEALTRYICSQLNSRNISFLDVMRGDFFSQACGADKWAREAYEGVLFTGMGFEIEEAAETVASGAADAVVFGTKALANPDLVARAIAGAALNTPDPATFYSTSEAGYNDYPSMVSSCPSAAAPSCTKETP

With `Cc1ccc(S(=O)(=O)NNC(Nc2ccc(F)cc2)=[S][Ag+][S]=C(NNS(=O)(=O)c2ccc(C)cc2)Nc2ccc(F)cc2)cc1.O=[N+]([O-])[O-]` [Ag3, [Ag(HL3^FPh)2]NO3] as the compound, how does the “Infection rate of L. infantum in macrophages, in words” value [1] read?
Its value is “able to inhibit the parasite infection inside the cells even at lower concentrations than that determined by their IC50 values; also recorded: able to inhibit the parasite infection even at lower concentrations than that of their IC50 values”.

What about the Kd (LbOYE; Hill plot (n = 1), Equation (1), Tris-HCl pH 8.0, 2.5% DMSO, read-out: Kd * (Hill plot)) of the same compound?
The Kd was 9.6 ± 0.7 µM.

What about the “Ksv *** (Stern–Volmer constant)” value (LbOYE; Stern–Volmer, Equation (3)) of the same compound?
The value was 23 ± 2 × 10^4.

What about the Kd (LbOYE; double log, Equation (2), Kd = 1/Kb, read-out: Kd ** (double log) (converted)) of the same compound?
The Kd was 11.2 ± 0.3 µM.

And the “n ** (number of bonding sites)” value (LbOYE; double log, Equation (2))?
The value was 2.0 ± 0.1.
